Consider 10 compounds from ChEMBL document CHEMBL1201862, “PubChem BioAssay data set” (2004).

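The compound was tested at five concentrations on cells cultured in 96-well plates, with a 48-hour exposure period. GI50: concentration for 50% inhibition of growth.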 Calls of active or inactive are those of the source. No stated cut-off is given here; in the data, active = GI50 up to about 1.1 µM and inactive = higher.

Some test systems named below: LOX IMVI; TK-10; Hs-578T; HCC 2998; Malme-3M; KM12; OVCAR-5; U-251; SW-620; SNB-75; SK-MEL-2; SNB-19; NCI-H226; HOP-92; A498; SN12C; DU-145; UACC-62; OVCAR-3; OVCAR-8.
What all share (test): NCI tumour cell line growth inhibition, 48 h

Turning to `O=C1c2ccccc2C(=O)c2c(Nc3ccc4c5c(cccc35)C(=O)c3ccccc3-4)cccc21`, the GI50 in the experiment on LOX IMVI, in the experiment with TK-10, with Hs-578T, in the experiment with HCC 2998, in the experiment with Malme-3M and in the experiment on KM12 was > 100 µM (inactive) each time. For the same compound, the GI50 with OVCAR-5, in the experiment on U-251, with SW-620, in the experiment with SNB-75, with SK-MEL-2 and in the experiment with SNB-19 was > 100 µM (inactive) throughout. Also, the GI50 with NCI-H226, in the experiment with HOP-92, in the experiment on A498, with SN12C, in the experiment on DU-145 and with UACC-62 was > 100 µM (inactive) throughout. The GI50 in the experiment on OVCAR-3 was > 100 µM (inactive).

As for `O=[N+]([O-])c1ccc(N2N=C(c3ccc4ccccc4c3O)CC2c2ccc(Cl)cc2)c([N+](=O)[O-])c1` (stereo not drawn), the GI50 was 53.1 µM (inactive) with TK-10; 37.9 µM (inactive) in the experiment with Hs-578T; 46.5 µM (inactive) with HCC 2998; 21.5 µM (inactive) with Malme-3M; 21.8 µM (inactive) in the experiment with KM12; > 100 µM (inactive) with OVCAR-5. In addition, the GI50 in the experiment with U-251 was 25.9 µM (inactive); in the experiment on SW-620, 29.9 µM (inactive); with SNB-75, 73.5 µM (inactive); in the experiment with SK-MEL-2, 33.6 µM (inactive); in the experiment on OVCAR-8 it was 37.3 µM (inactive); in the experiment with NCI-H226 it was 50.8 µM (inactive). For the same compound, the GI50 in the experiment on HOP-92 is 33 µM (inactive); in the experiment on A498, 27.2 µM (inactive); with SN12C, 33.2 µM (inactive); with DU-145, 48.8 µM (inactive); with UACC-62, > 100 µM (inactive); in the experiment with OVCAR-3, 24.8 µM (inactive).

With `C/C(C=O)=C/[C@@]1(C)O[C@@H](C)[C@@](C)(O)[C@@H]1O`, the GI50 in the experiment with LOX IMVI is 95.5 µM (inactive); in the experiment with TK-10, 77.6 µM (inactive); with Hs-578T, 49.5 µM (inactive); with HCC 2998, 17.4 µM (inactive); in the experiment on Malme-3M, 52 µM (inactive); in the experiment on KM12, 35.4 µM (inactive). The GI50 is > 100 µM (inactive) in the experiment with OVCAR-5; > 100 µM (inactive) with U-251; 87.3 µM (inactive) in the experiment on SW-620; 80.5 µM (inactive) in the experiment with SK-MEL-2; 61.1 µM (inactive) in the experiment with SNB-19; 18.8 µM (inactive) in the experiment with OVCAR-8. Besides, the GI50 was > 100 µM (inactive) with NCI-H226; 37.2 µM (inactive) in the experiment on HOP-92; 83.6 µM (inactive) in the experiment with A498; 32.5 µM (inactive) in the experiment on SN12C; 78.9 µM (inactive) with DU-145; 43.7 µM (inactive) with UACC-62. In the experiment with OVCAR-3, the GI50 was 49.1 µM (inactive).

For `COC(=O)/C=C/c1ccc2c(c1)CC1(C2)Cc2cc3c(cc2C1=O)CCC3` (stereo not drawn), the GI50 is > 100 µM (inactive) in the experiment with LOX IMVI; 57.3 µM (inactive) in the experiment on TK-10; 25.2 µM (inactive) in the experiment on Hs-578T; > 100 µM (inactive) in the experiment with HCC 2998; 42 µM (inactive) with Malme-3M; 56.8 µM (inactive) in the experiment on KM12. Besides, the GI50 was 26.5 µM (inactive) with U-251; > 100 µM (inactive) in the experiment with SW-620; 24.9 µM (inactive) with SNB-75; > 100 µM (inactive) in the experiment on SK-MEL-2; 31.6 µM (inactive) in the experiment with SNB-19; 25.1 µM (inactive) in the experiment on OVCAR-8. Further, the GI50 in the experiment on NCI-H226 is 49.3 µM (inactive); in the experiment on HOP-92 it was 35.3 µM (inactive); in the experiment on A498, > 100 µM (inactive); with SN12C, > 100 µM (inactive); with DU-145, > 100 µM (inactive); with UACC-62 it was > 100 µM (inactive). For the same compound, the GI50 in the experiment with OVCAR-3 was 4.63 µM (inactive).

In the case of `Cn1c(-c2cccs2)cc(-c2cccs2)c1-c1ccsc1`, the GI50 in the experiment on LOX IMVI is > 100 µM (inactive); with TK-10, > 100 µM (inactive); in the experiment with Hs-578T, > 100 µM (inactive); in the experiment with HCC 2998, > 100 µM (inactive); with KM12, 29.5 µM (inactive); with OVCAR-5, > 100 µM (inactive). The GI50 in the experiment on U-251 was > 100 µM (inactive); in the experiment with SW-620, > 100 µM (inactive); in the experiment on SNB-75 it was > 100 µM (inactive); in the experiment with SK-MEL-2 it was 34.1 µM (inactive); with SNB-19, 70.3 µM (inactive); in the experiment with OVCAR-8 it was > 100 µM (inactive). The GI50 in the experiment on NCI-H226, in the experiment with HOP-92, with A498, in the experiment on SN12C, in the experiment with DU-145 and in the experiment on UACC-62 was > 100 µM (inactive) each time. Besides, the GI50 in the experiment on OVCAR-3 is 12.4 µM (inactive).

Take `N#Cc1sc2nc3ccccc3n2c1N`: the GI50 in the experiment on LOX IMVI was 40.8 µM (inactive); with TK-10, 14.9 µM (inactive); in the experiment on Hs-578T, 36.2 µM (inactive); in the experiment with HCC 2998, 36.2 µM (inactive); in the experiment on Malme-3M, > 100 µM (inactive); in the experiment on KM12, 0.344 µM (active). For the same compound, the GI50 with OVCAR-5 was > 100 µM (inactive); in the experiment on U-251, 83.9 µM (inactive); with SW-620 it was 92.5 µM (inactive); in the experiment with SNB-75 it was 29.7 µM (inactive); in the experiment with SK-MEL-2, 26.1 µM (inactive); in the experiment with SNB-19, > 100 µM (inactive). The GI50 was 78.2 µM (inactive) in the experiment on OVCAR-8; 95.9 µM (inactive) in the experiment with NCI-H226; > 100 µM (inactive) in the experiment on HOP-92; 39.4 µM (inactive) in the experiment on A498; 94.8 µM (inactive) with DU-145; 62.4 µM (inactive) in the experiment with UACC-62. The GI50 in the experiment with OVCAR-3 was 68.7 µM (inactive).

With `N#C/C=C\c1ccc(-c2cc(C(F)(F)F)cc(C(F)(F)F)c2)o1`, the GI50 with LOX IMVI was 38.7 µM (inactive); in the experiment with Hs-578T, 18.4 µM (inactive); in the experiment with HCC 2998 it was 21.6 µM (inactive); in the experiment with Malme-3M, 64.4 µM (inactive); in the experiment on KM12, 49 µM (inactive); with OVCAR-5 it was > 100 µM (inactive). In addition, the GI50 in the experiment on U-251 was 14.4 µM (inactive); in the experiment on SW-620, 49.7 µM (inactive); in the experiment on SNB-75, 18.7 µM (inactive); in the experiment on SK-MEL-2 it was 15.6 µM (inactive); in the experiment with SNB-19, 30 µM (inactive); in the experiment with OVCAR-8, 23 µM (inactive). Besides, the GI50 in the experiment with NCI-H226 was 55.8 µM (inactive); in the experiment with HOP-92, 20.7 µM (inactive); in the experiment on A498, 26.5 µM (inactive); in the experiment with SN12C, 35.6 µM (inactive); with DU-145, > 100 µM (inactive); in the experiment on UACC-62, 23.3 µM (inactive). For the same compound, the GI50 in the experiment on OVCAR-3 was > 100 µM (inactive).

For the compound `COc1cc(CNC(=O)[C@H](Cc2ccc(O)cn2)NC(C)=O)cc(OC)c1`, the GI50 in the experiment on LOX IMVI, in the experiment on TK-10, in the experiment with Hs-578T, in the experiment with HCC 2998, in the experiment on Malme-3M and in the experiment with KM12 was > 100 µM (inactive) in each case. Besides, the GI50 in the experiment with OVCAR-5, in the experiment with U-251, in the experiment with SW-620, in the experiment on SK-MEL-2, in the experiment on SNB-19 and in the experiment on NCI-H226 was > 100 µM (inactive) each time. The GI50 with HOP-92 is 13.2 µM (inactive); in the experiment with A498, > 100 µM (inactive); in the experiment on SN12C it was > 100 µM (inactive); in the experiment on DU-145, > 100 µM (inactive); with UACC-62 it was 80.9 µM (inactive); with OVCAR-3, 50.6 µM (inactive).

As for `CCO[C@@]12CCC3CC4CC[C@@](OCC)(O1)C4C32` (stereo partly drawn), the GI50 with LOX IMVI, in the experiment with TK-10, in the experiment on Hs-578T, in the experiment on HCC 2998, with Malme-3M and in the experiment on KM12 was > 100 µM (inactive) each time. For the same compound, the GI50 with OVCAR-5, in the experiment with U-251, in the experiment on SW-620, in the experiment with SNB-75, with SK-MEL-2 and in the experiment with SNB-19 was > 100 µM (inactive) throughout. The GI50 in the experiment on OVCAR-8, in the experiment with NCI-H226, in the experiment on HOP-92, in the experiment with A498, with SN12C and in the experiment with DU-145 was > 100 µM (inactive) throughout. Also, the GI50 in the experiment on UACC-62 and in the experiment on OVCAR-3 was > 100 µM (inactive) each time.

Take `COc1ccc(-c2nnc3nc4ccccc4n3c2O)cc1`: the GI50 with LOX IMVI, with TK-10, with Hs-578T, in the experiment on HCC 2998, with Malme-3M and in the experiment with KM12 was > 100 µM (inactive) each time. The GI50 was > 100 µM (inactive) with OVCAR-5; 90.2 µM (inactive) with U-251; > 100 µM (inactive) in the experiment on SW-620; 41.9 µM (inactive) in the experiment with SNB-75; > 100 µM (inactive) in the experiment with SK-MEL-2; > 100 µM (inactive) in the experiment on SNB-19. Besides, the GI50 in the experiment on OVCAR-8 was > 100 µM (inactive); in the experiment on NCI-H226, > 100 µM (inactive); in the experiment with HOP-92 it was 54 µM (inactive); in the experiment on A498, > 100 µM (inactive); in the experiment on SN12C, > 100 µM (inactive); in the experiment with DU-145, > 100 µM (inactive).
